Measurements reported in PubChem BioAssay AID328 (DTP/NCI, 2004).
Where “and” joins values, the source holds several entries; their conditions need not be identical. Identical values can stand only once. Toxic doses and inconclusive results are not listed.

System: BDF1 mice, P388 leukemia ip, median survival T/C
Assay: NCI In Vivo Anticancer Drug Screen. Data for tumor model P388 Leukemia (intraperitoneal) in B6D2F1 (BDF1) mice
Conditions: endpoint: median survival time, higher = longer survival
Experimental: The antitumor activity of compounds was measured in mice bearing transplantable tumors. Survival or tumor size were measured and the results are expressed as the measurement made in the treated group (T) divided by the measurement made in the vehicle treated control group (C). The tumor model used in this assay is P388 Leukemia (intraperitoneal) in B6D2F1 (BDF1) mice

[1] = dose: 100.0 mg/kg/injection, schedule: Q04DX003 (ip), vehicle: Klucel (hydroxypropylcellulose) (HPC)
[2] = dose: 200.0 mg/kg/injection, schedule: Q04DX003 (ip), vehicle: Klucel (hydroxypropylcellulose) (HPC)
[3] = dose: 100.0 mg/kg/injection, schedule: Q01DX009 (ip), vehicle: Klucel (hydroxypropylcellulose) (HPC)
[4] = dose: 200.0 mg/kg/injection, schedule: Q01DX009 (ip), vehicle: Klucel (hydroxypropylcellulose) (HPC)
[5] = dose: 400.0 mg/kg/injection, schedule: Q01DX009 (ip), vehicle: Klucel (hydroxypropylcellulose) (HPC)
[6] = dose: 400.0 mg/kg/injection, schedule: Q04DX003 (ip), vehicle: Klucel (hydroxypropylcellulose) (HPC)
[7] = dose: 12.5 mg/kg/injection, schedule: Q04DX003 (ip), vehicle: saline with Tween-80
[8] = dose: 100.0 mg/kg/injection, schedule: Q04DX003 (ip), vehicle: saline with Tween-80
[9] = dose: 200.0 mg/kg/injection, schedule: Q04DX003 (ip), vehicle: saline with Tween-80
[10] = dose: 100.0 mg/kg/injection, schedule: Q01DX009 (ip), vehicle: saline with Tween-80
[11] = dose: 25.0 mg/kg/injection, schedule: Q01DX009 (ip), vehicle: saline
[12] = dose: 100.0 mg/kg/injection, schedule: Q04DX003 (ip), vehicle: saline
[13] = dose: 200.0 mg/kg/injection, schedule: Q04DX003 (ip), vehicle: saline
[14] = dose: 400.0 mg/kg/injection, schedule: Q04DX003 (ip), vehicle: saline
[15] = dose: 200.0 mg/kg/injection, schedule: Q01DX009 (ip), vehicle: saline with Tween-80
[16] = dose: 400.0 mg/kg/injection, schedule: Q01DX009 (ip), vehicle: saline with Tween-80
[17] = dose: 400.0 mg/kg/injection, schedule: Q04DX003 (ip), vehicle: saline with Tween-80

SMILES: Nc1ccccc1-c1ccccc1N
- T/C [1]: 100 % of control
- T/C [2]: 90 % of control

SMILES: COc1cc(C(=O)OC2CC34CCNC35CC(OC5(OC)C2O)c2cc3c(cc24)OCO3)ccc1O (stereo unspecified)
- T/C (dose: 0.5 mg/kg/injection, schedule: Q01DX010 (ip), vehicle: saline): 100 % of control
- T/C (dose: 1.0 mg/kg/injection, schedule: Q01DX010 (ip), vehicle: carboxymethylcellulose (CMC)): 86 % of control
- T/C (dose: 1.0 mg/kg/injection, schedule: Q01DX010 (ip), vehicle: saline): 118 % of control
- T/C (dose: 2.0 mg/kg/injection, schedule: Q01DX010 (ip), vehicle: saline): 95 % of control

SMILES: CC1(C)CC(C)(c2ccccc2)c2ccccc21 (stereo unspecified)
- T/C [3]: 120 % of control
- T/C (dose: 100.0 mg/kg/injection, schedule: Q04DX003 (ip), vehicle: other): 109 % of control
- T/C (dose: 132.0 mg/kg/injection, schedule: Q01DX009 (ip), vehicle: Klucel (hydroxypropylcellulose) (HPC)): 90 % of control
- T/C (dose: 200.0 mg/kg/injection, schedule: Q04DX003 (ip), vehicle: other): 114 % of control
- T/C (dose: 300.0 mg/kg/injection, schedule: Q01DX009 (ip), vehicle: Klucel (hydroxypropylcellulose) (HPC)): 100 % of control
- T/C (dose: 400.0 mg/kg/injection, schedule: Q04DX003 (ip), vehicle: other): 104 % of control

SMILES: CCCCC(/C=C1/CCCCC1=O)CC (stereo unspecified)
- T/C [3]: 95 % of control
- T/C [1]: 104 % of control
- T/C [4]: 87 % of control
- T/C [2]: 104 % of control
- T/C [5]: 91 % of control
- T/C [6]: 113 % of control

SMILES: O=[N+]([O-])c1ccc(/C=C/c2ncc[nH]2)o1
- T/C (dose: 50.0 mg/kg/injection, schedule: Q04DX003 (ip), vehicle: Klucel (hydroxypropylcellulose) (HPC)): 100 % of control
- T/C [1]: 100 % of control
- T/C [2]: 100 % of control

SMILES: CCCCC(=O)NN
- T/C [7]: 99 % of control
- T/C (dose: 25.0 mg/kg/injection, schedule: Q04DX003 (ip), vehicle: saline with Tween-80): 103 % of control
- T/C (dose: 50.0 mg/kg/injection, schedule: Q04DX003 (ip), vehicle: saline with Tween-80): 110 % of control
- T/C [8]: 100 % of control
- T/C [9]: 91 % of control

SMILES: CCCCC/C(C=C(C#N)C#N)=C/c1ccccc1
- T/C (dose: 25.0 mg/kg/injection, schedule: Q01DX009 (ip), vehicle: saline with Tween-80): 100 % of control
- T/C [10]: 119 % of control

SMILES: N#CC1CCCCC1C1(C#N)CCCCC1Cc1ccccn1 (stereo unspecified)
- T/C (dose: 100.0 mg/kg/injection, schedule: Q04DX002 (ip), vehicle: saline with Tween-80): 98 % of control
- T/C (dose: 200.0 mg/kg/injection, schedule: Q04DX002 (ip), vehicle: saline with Tween-80): 107 % of control
- T/C (dose: 400.0 mg/kg/injection, schedule: Q04DX002 (ip), vehicle: saline with Tween-80): 92 % of control

SMILES: O=[N+]([O-])C1(CO)COC(c2ccccc2)OC1 (stereo unspecified)
- T/C (dose: 100.0 mg/kg/injection, schedule: Q01DX009 (ip), vehicle: water): 109 % of control
- T/C (dose: 100.0 mg/kg/injection, schedule: Q04DX003 (ip), vehicle: water): 95 % of control
- T/C (dose: 200.0 mg/kg/injection, schedule: Q01DX009 (ip), vehicle: water): 86 % of control
- T/C (dose: 200.0 mg/kg/injection, schedule: Q04DX003 (ip), vehicle: water): 100 % of control
- T/C (dose: 400.0 mg/kg/injection, schedule: Q01DX009 (ip), vehicle: water): 90 % of control
- T/C (dose: 400.0 mg/kg/injection, schedule: Q04DX003 (ip), vehicle: water): 104 % of control

SMILES: COc1cc(C=Nc2cccc(Br)c2)ccc1N(CCCl)CCCl
- T/C (dose: 5.5 mg/kg/injection, schedule: Q04DX003 (ip), vehicle: saline with Tween-80): 159 % of control
- T/C (dose: 8.3 mg/kg/injection, schedule: Q04DX003 (ip), vehicle: saline with Tween-80): 177 % of control
- T/C [7]: 190 % of control
- T/C (dose: 25.0 mg/kg/injection, schedule: Q04DX003 (ip), vehicle: other): 250 % of control
- T/C (dose: 100.0 mg/kg/injection, schedule: Q01DX009 (ip), vehicle: saline sonified): 90 % of control

SMILES: CC(=O)CC(c1ccc2c(c1)OCO2)c1c(O)c2ccccc2oc1=O (stereo unspecified)
- T/C (dose: 0.39 mg/kg/injection, schedule: Q01DX009 (ip), vehicle: saline): 88 % of control
- T/C (dose: 0.78 mg/kg/injection, schedule: Q01DX009 (ip), vehicle: saline): 106 % of control
- T/C (dose: 0.78 mg/kg/injection, schedule: Q04DX003 (ip), vehicle: saline): 89 % of control
- T/C (dose: 1.56 mg/kg/injection, schedule: Q01DX009 (ip), vehicle: saline): 106 % of control
- T/C (dose: 1.56 mg/kg/injection, schedule: Q04DX003 (ip), vehicle: saline): 98 % of control
- T/C (dose: 3.12 mg/kg/injection, schedule: Q04DX003 (ip), vehicle: saline): 89 % of control
- T/C (dose: 6.25 mg/kg/injection, schedule: Q04DX003 (ip), vehicle: saline): 89 % of control
- T/C (dose: 12.5 mg/kg/injection, schedule: Q04DX003 (ip), vehicle: saline): 102 % of control

SMILES: O=C(CC/[N+]([O-])=C/c1ccccc1)OCc1ccccc1
- T/C (dose: 12.5 mg/kg/injection, schedule: Q01DX009 (ip), vehicle: other): 92 % of control
- T/C (dose: 25.0 mg/kg/injection, schedule: Q01DX009 (ip), vehicle: other): 97 % of control
- T/C (dose: 50.0 mg/kg/injection, schedule: Q01DX009 (ip), vehicle: other): 103 % of control
- T/C (dose: 100.0 mg/kg/injection, schedule: Q01DX009 (ip), vehicle: other): 97 % of control
- T/C (dose: 200.0 mg/kg/injection, schedule: Q01DX009 (ip), vehicle: other): 92 % of control

SMILES: CC(Br)C1(c2cccc([N+](=O)[O-])c2)OCCO1 (stereo unspecified)
- T/C (dose: 25.0 mg/kg/injection, schedule: Q01DX001 (ip), vehicle: Klucel (hydroxypropylcellulose) (HPC)): 100 % of control
- T/C (dose: 50.0 mg/kg/injection, schedule: Q01DX001 (ip), vehicle: Klucel (hydroxypropylcellulose) (HPC)): 104 % of control
- T/C (dose: 100.0 mg/kg/injection, schedule: Q01DX001 (ip), vehicle: Klucel (hydroxypropylcellulose) (HPC)): 90 % of control and 100 % of control

SMILES: S=P(N1CCCCCC1)(N1CC1)N1CC1
- T/C (dose: 16.5 mg/kg/injection, schedule: Q01DX009 (ip), vehicle: saline): 154 % of control
- T/C [11]: 195 % of control
- T/C (dose: 37.5 mg/kg/injection, schedule: Q01DX009 (ip), vehicle: saline): 122 % of control

SMILES: CC([OH2+])CNCCN.CC([OH2+])CNCCN.O=[N+]([O-])[O-].[Cu+2] (stereo unspecified)
- T/C (dose: 12.5 mg/kg/injection, schedule: Q01DX009 (ip), vehicle: saline): 110 % of control
- T/C [11]: 113 % of control

SMILES: CC1=CC(=O)OC(C)(C)C1
- T/C [12]: 100 % of control
- T/C [13]: 100 % of control
- T/C [14]: 100 % of control

SMILES: O=C(Cn1cc(F)c(=O)[nH]c1=O)c1ccc(Cl)s1
- T/C (dose: 50.0 mg/kg/injection, schedule: Q01DX009 (ip), vehicle: saline with Tween-80): 105 % of control
- T/C [10]: 96 % of control
- T/C [8]: 94 % of control
- T/C [15]: 103 % of control
- T/C [9]: 101 % of control
- T/C [16]: 103 % of control
- T/C [17]: 102 % of control

SMILES: COc1cc2c(cc1OC)-c1ncnc(-c3ccccc3)c1C2
- T/C [3]: 100 % of control
- T/C [1]: 108 % of control
- T/C [4]: 100 % of control
- T/C [2]: 91 % of control
- T/C [5]: 95 % of control
- T/C [6]: 95 % of control

SMILES: Nc1c(C(=O)O)cccc1C(=O)O
- T/C [10]: 104 % of control
- T/C [8]: 100 % of control
- T/C [15]: 109 % of control
- T/C [9]: 100 % of control
- T/C [16]: 113 % of control
- T/C [17]: 95 % of control

SMILES: C[N+](C)(C)CCC[N+](C)(C)C
- T/C [12]: 100 % of control
- T/C (dose: 200.0 mg/kg/injection, schedule: Q01DX006 (ip), vehicle: saline): 114 % of control
- T/C [13]: 104 % of control
- T/C (dose: 300.0 mg/kg/injection, schedule: Q01DX006 (ip), vehicle: saline): 151 % of control
- T/C (dose: 400.0 mg/kg/injection, schedule: Q01DX006 (ip), vehicle: saline): 94 % of control
- T/C [14]: 93 % of control
